According to patent US20230241027A1, “DIALKYL T[…] THEIR […] USES” (CAAMTECH, INC., priority 2020, published 2023):

Test: hydrolysis of the compound into its active (dissolved in water, followed by NMR)

CN(C)CCc1c[nH]c2cccc(OP(=O)(O)O)c12 [Psilocybin]
half-life: < 365 days
